One block for each compound: values may come before it.
Key:
[1] = test system: surface expression of NPC1L1 in MDCKII cells; assay: Effect of lovastatin on surface expression of NPC1L1 ([3H]AS binding) in MDCKII cells; assay type: cell-based, dog; settings: 4 μM lovastatin; for effect on [3H]AS binding: cells grown in 5% LPDS, 72 h
Experimental: To determine whether the expression pattern of NPC1L1 in MDCKII cells is sensitive to changes in the endogenous concentration of cholesterol, MDCKII cells were seeded and grown in either 10% FBS or 5% lipoprotein deficient serum (5% LPDS) in the absence or presence of the HMG CoA reductase inhibitor, lovastatin.

human NPC1L1 [2] = molecular target: T1, human NPC1L1 (Homo sapiens, UniProt Q9UHC9); assay: [3H]cholesterol flux into hNPC1L1/MDCKII-Flp cells; assay type: cell-based; settings: hNPC1L1/MDCKII-Flp, FIG. 7D; read-out: IC50 block of [3H]cholesterol flux
T1 construct: expressed in transfected cells
T1 sequence (Q9UHC9 22-1359): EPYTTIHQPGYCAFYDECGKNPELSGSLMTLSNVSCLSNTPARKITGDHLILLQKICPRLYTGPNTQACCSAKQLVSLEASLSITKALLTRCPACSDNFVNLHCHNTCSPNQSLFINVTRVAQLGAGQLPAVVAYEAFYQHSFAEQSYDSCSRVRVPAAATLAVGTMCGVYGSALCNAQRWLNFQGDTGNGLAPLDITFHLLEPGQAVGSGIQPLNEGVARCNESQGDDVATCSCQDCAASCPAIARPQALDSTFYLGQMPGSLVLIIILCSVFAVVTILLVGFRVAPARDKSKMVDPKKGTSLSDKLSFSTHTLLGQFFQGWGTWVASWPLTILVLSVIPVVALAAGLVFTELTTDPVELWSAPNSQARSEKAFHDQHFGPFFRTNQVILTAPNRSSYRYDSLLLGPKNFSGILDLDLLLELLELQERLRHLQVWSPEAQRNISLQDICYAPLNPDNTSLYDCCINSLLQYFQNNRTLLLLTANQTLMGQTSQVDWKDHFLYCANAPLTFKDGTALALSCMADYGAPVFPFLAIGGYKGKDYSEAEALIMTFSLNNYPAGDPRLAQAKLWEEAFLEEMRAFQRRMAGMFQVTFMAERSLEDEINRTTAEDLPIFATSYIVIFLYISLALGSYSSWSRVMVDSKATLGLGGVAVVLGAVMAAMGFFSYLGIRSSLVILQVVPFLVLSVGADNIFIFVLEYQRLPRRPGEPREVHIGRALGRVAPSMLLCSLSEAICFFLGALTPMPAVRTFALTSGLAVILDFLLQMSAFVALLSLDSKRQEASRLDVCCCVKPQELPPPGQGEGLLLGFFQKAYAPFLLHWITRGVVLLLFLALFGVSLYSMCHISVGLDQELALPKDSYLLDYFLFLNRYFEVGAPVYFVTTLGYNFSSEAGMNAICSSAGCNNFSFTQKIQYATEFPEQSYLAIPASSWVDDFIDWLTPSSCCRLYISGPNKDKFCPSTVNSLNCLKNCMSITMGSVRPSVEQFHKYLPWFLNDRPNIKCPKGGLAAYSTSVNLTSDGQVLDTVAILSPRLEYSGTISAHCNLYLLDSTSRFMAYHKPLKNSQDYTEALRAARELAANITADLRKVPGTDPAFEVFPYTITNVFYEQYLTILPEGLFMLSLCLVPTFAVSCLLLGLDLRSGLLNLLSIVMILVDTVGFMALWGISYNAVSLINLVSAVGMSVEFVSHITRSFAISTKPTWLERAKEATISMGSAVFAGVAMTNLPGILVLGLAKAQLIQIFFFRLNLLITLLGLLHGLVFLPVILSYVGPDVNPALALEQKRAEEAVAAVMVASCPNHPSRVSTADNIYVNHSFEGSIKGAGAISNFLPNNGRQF
Experimental: Flux assays were performed essentially as described by Yu et al., 2006 J Biol. Chem. 281:6616-6624. Briefly, cell growth medium was completely aspirated and replaced with 200 μl of 5% LPDS containing the appropriate concentration of compound and incubated at 37° C./3 h in a 5% CO2 incubator. Media was subsequently aspirated from cells and cells were incubated in 200 μl of 0-5.5% βmCD dissolved and filtered through a […] filter at 37° C./45 minutes in a 5% CO2 incubator. Media was dumped from cells that were then washed twice with 125 μl of 5% LPDS before media was aspirated and [3H]cholesterol complexed to BSA in 5% LPDS was added; see Yu et al., 2006 J. Biol. Chem. 281:6616-6624. After 45 minute incubation, cells were washed twice with DMEM, thoroughly aspirated and then 1% SDS was added prior to extraction for scintillation counting.
To validate MDCKII cells as an appropriate surrogate system for monitoring NPC1L1-dependent processes, we evaluated their ability to perform EZE-sensitive cholesterol flux using a similar protocol to that recently reported. This assay makes use of the ability of βmCD to deplete membrane-bound cholesterol. Subsequent exposure of cells to [^3H] cholesterol provides a time-dependent flux of this substrate into the cells. […] In an attempt to improve the assay window, a stable MDCKII-Flp cell line over-expressing human NPC1L1, hNPC1L1/MDCKII-Flp, was generated.
(§1) To further characterize the [^3H] cholesterol influx process into MDCK cells, the potency of EZE-like compound PS for inhibiting [^3H] cholesterol uptake was determined.

human NPC1L1 [3] = molecular target: T1, human NPC1L1; assay: [3H]AS binding to hNPC1L1/MDCKII-Flp cells; settings: FIG. 7D, read-out: Ki inhibition of [3H]AS binding
Experimental: (§2) rNPC1L1/HEK293 and TsA201 cells were seeded at a density of 10,000 cells per well in 96-well poly-D-lysine coated plates and cells were allowed to attach for approximately 18 h at 37° C. TsA201 cells were subsequently transfected with dog NPC1L1/pcDNA5/FRT according to the manufacturer's instructions (Roche) and incubated for 3 days at 37° C. MDCKII-derived, LLC-PKI, HepG2, or CaCo-2 cells were seeded at a density of 25,000 cells per well in 96-well tissue culture treated plates, and cells were allowed to attach and differentiate for approximately 72 h at 37° C., except for CaCo-2 cells where differentiation took approximately 14 days at 37° C. […] Duplicate samples were averaged for each experimental point. […] Dissociation kinetics were determined by addition of 100 μM EZE-gluc, and incubating for different periods of time. Nonspecific binding was defined in the presence of 100 μM EZE-gluc. At the end of the incubation period, cells were washed twice with 200 μl of pre-warmed DMEM to separate bound from free ligand, 1% SDS was added to the wells followed by 5 ml of Scintillant, and radioactivity associated with cells was determined using a β-counter. […] Thereafter, plates were placed on ice and cells were washed twice with ice-cold PBS, followed by ice-cold acid wash with DMEM, pH 3.5, for 1, 5 or 15 minutes. […] For Transwell experiments, MDCKII cells were seeded at 200,000 cells/well in a 24-well plate and incubated for 3 days at 37° C. […] Thereafter, both apical and basolateral compartments were washed three times with PBS, and the Transwell filter was cut out and its associated radioactivity determined using afi-counter. Data from saturation, competition and ligand dissociation experiments were analyzed as described in the literature; see, Priest, et al., 2004 Biochemistry 43:9866-9876; Knaus et al., 1995 Biochemistry 34:13627-13634. The association rate, k1, was determined by employing the pseudo-first-order rate equation k1=kobs([LR]e/[L][LR]max)) where [LR]max is the concentration of the complex at equilibrium, [L] is the concentration of ligand, [LR]max is the total receptor concentration, kobs is the slope of the pseudo-first order plot, ln([LR]e/([LR]e−[LR]t)) versus time, and [LR]t is the receptor-ligand complex at one given time point t.
To validate MDCKII cells as an appropriate surrogate system for monitoring NPC1L1-dependent processes, we evaluated their ability to perform EZE-sensitive cholesterol flux using a similar protocol to that recently reported. This assay makes use of the ability of βmCD to deplete membrane-bound cholesterol. […]
as §1

dog NPC1L1 = dog NPC1L1 (Canis lupus familiaris, UniProt A0A8I3RZG1); assay: [3H]AS binding to dog NPC1L1 transiently expressed in TsA201 cells
Chain of dog NPC1L1 (A0A8I3RZG1 entry or part of it): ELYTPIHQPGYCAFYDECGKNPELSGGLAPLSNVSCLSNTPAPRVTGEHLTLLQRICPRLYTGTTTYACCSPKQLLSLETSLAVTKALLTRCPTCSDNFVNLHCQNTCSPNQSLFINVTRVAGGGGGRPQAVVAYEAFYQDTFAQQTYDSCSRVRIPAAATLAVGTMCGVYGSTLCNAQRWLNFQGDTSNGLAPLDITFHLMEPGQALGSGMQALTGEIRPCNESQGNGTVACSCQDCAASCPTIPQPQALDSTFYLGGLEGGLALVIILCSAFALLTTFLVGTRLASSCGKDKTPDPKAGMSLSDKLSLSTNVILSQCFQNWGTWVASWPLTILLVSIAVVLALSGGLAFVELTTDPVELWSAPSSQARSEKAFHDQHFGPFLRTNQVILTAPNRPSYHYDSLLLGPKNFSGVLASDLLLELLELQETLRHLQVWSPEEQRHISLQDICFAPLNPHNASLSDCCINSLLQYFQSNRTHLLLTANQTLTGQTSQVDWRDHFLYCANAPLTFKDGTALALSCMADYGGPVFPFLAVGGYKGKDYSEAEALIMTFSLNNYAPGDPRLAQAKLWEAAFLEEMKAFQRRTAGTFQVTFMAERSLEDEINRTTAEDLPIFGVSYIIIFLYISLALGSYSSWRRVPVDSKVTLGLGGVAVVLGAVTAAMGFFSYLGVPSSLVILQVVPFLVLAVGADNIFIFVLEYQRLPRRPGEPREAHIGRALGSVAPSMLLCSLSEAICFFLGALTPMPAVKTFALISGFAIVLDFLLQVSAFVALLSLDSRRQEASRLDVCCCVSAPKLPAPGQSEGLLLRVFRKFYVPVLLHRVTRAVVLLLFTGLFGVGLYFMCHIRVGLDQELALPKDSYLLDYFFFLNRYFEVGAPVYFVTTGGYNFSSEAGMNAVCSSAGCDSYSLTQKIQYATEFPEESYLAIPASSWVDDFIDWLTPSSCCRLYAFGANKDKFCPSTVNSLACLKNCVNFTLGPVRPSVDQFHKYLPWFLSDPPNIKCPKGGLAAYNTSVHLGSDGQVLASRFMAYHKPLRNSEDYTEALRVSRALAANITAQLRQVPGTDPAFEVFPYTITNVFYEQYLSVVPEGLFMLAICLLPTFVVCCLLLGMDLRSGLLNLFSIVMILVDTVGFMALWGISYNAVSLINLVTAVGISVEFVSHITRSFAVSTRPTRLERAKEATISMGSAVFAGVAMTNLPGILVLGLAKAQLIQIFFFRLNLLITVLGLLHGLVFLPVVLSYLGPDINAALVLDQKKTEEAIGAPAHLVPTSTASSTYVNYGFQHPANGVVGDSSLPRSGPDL
Experimental: as §2
To further validate this statement, cloned dog NPC1L1 was transiently expressed in TsA201 cells and binding of [^3]AS to these cells was then characterized (FIG. 5 and Table 1).

rat NPC1L1 = molecular target: T2, rat NPC1L1 (Rattus norvegicus, UniProt Q6T3U3); assay: [3H]AS binding to rNPC1L1/HEK293 cells (saturation, kinetics, competition, acid wash)
T2 construct: expressed in transfected cells
Experimental: rNPC1L1/HEK293 and TsA201 cells were seeded at a density of 10,000 cells per well in 96-well poly-D-lysine coated plates and cells were allowed to attach for approximately 18 h at 37° C. TsA201 cells were subsequently transfected with dog NPC1L1/pcDNA5/FRT according to the manufacturer's instructions (Roche) and incubated for 3 days at 37° C. MDCKII-derived, LLC-PKI, HepG2, or CaCo-2 cells were seeded at a density of 25,000 cells per well in 96-well tissue culture treated plates, and cells were allowed to attach and differentiate for approximately 72 h at 37° C., except for CaCo-2 cells where differentiation took approximately 14 days at 37° C. […] Duplicate samples were averaged for each experimental point. […] To determine the kinetics of ligand association, cells were incubated with [^3H]AS for different periods of time. Dissociation kinetics were determined by addition of 100 μM EZE-gluc, and incubating for different periods of time. Nonspecific binding was defined in the presence of 100 μM EZE-gluc. At the end of the incubation period, cells were washed twice with 200 μl of pre-warmed DMEM to separate bound from free ligand, 1% SDS was added to the wells followed by 5 ml of Scintillant, and radioactivity associated with cells was determined using a β-counter. […] Thereafter, plates were placed on ice and cells were washed twice with ice-cold PBS, followed by ice-cold acid wash with DMEM, pH 3.5, for 1, 5 or 15 minutes. […] For Transwell experiments, MDCKII cells were seeded at 200,000 cells/well in a 24-well plate and incubated for 3 days at 37° C. […] Thereafter, both apical and basolateral compartments were washed three times with PBS, and the Transwell filter was cut out and its associated radioactivity determined using afi-counter. Data from saturation, competition and ligand dissociation experiments were analyzed as described in the literature; see, Priest, et al., 2004 Biochemistry 43:9866-9876; Knaus et al., 1995 Biochemistry 34:13627-13634. The association rate, k1, was determined by employing the pseudo-first-order rate equation k1=kobs([LR]e/[L][LR]max)) where [LR]max is the concentration of the complex at equilibrium, [L] is the concentration of ligand, [LR]max is the total receptor concentration, kobs is the slope of the pseudo-first order plot, ln([LR]e/([LR]e−[LR]t)) versus time, and [LR]t is the receptor-ligand complex at one given time point t.
Incubation of rNPC1L1/HEK293 cells with 5 nM [311]AS results in a time-dependent association of ligand with cells that reaches equilibrium in ˜3 h (FIG. 1B). The nonspecific binding component is time-independent and has been subtracted from the experimental data. A semilogarithmic transformation of the data yielded a linear dependence (FIG. 1B, inset), as expected for a pseudo-first order reaction, and the slope of this line gives kobs of 0.0208 min^−1. The association rate constant, k1, calculated as described under Example 3, is 2.4×10^6 M^−1 min^−1.
Ki values, determined as described above, are presented in Table 1 below and display the expected rank order of potency for interaction of these ligands with rat NPC1L1; Garcia-Calvo et al., 2005 Proc. Natl. Acad. Sci. USA 102:8132-8137.
Such an approach has previously been previously used to characterize cell surface, non-covalent interactions; Hopkins & Trowbridge, 1983 J. Cell Biol. 97:508-521; Chen et al., 1998 Proc. Natl. Acad. USA 95:6373-6378.

[4] = molecular target: dog NPC1L1 endogenously expressed in MDCKII cells (Canis lupus familiaris, UniProt A0A8I3RZG1); assay: [3H]AS binding to MDCKII cells (saturation, kinetics, competition, acid wash)
Chain of dog NPC1L1 endogenously expressed in MDCKII cells (A0A8I3RZG1 entry or part of it): as above
Experimental: as §2

Compound: CC[C@H](C)C(=O)O[C@H]1C[C@@H](C)C=C2C=C[C@H](C)[C@H](CC[C@@H]3C[C@@H](O)CC(=O)O3)[C@H]21 [lovastatin]
effect on [3H]AS binding [1]: doubles
effect on [3H]AS binding ([1]; listed as Lovastatin): increase
effect on surface expression of NPC1L1 ([1]; cells grown in 10% FBS): does not cause any significant effect

IC50 (human NPC1L1 [2]): > 100000 nM
Ki (human NPC1L1 [3]): > 100000 nM
Compound: O=C(O)C1OC(Oc2ccc(C3C(CCC(O)c4ccc(F)cc4)C(=O)N3c3ccc(F)cc3)cc2)C(O)C(O)C1O (single isomer, unassigned; ent-1) [ent-1]

IC50 (dog NPC1L1; 4.65 nM [3H]AS, 4 h, 37° C., read-out: IC50 inhibition of [3H]AS binding): 3.79 nM
Kd (dog NPC1L1; dog NPC1L1/TsA201 cells, read-out: Kd (saturation binding)): 2.15 ± 0.39 nM
Ki (dog NPC1L1; dog NPC1L1/TsA201 cells, read-out: Ki (competition with [3H]AS)): 1 ± 0.11 nM
IC50 (rat NPC1L1; 5.36 nM [3H]AS, 4 h, 37° C., read-out: IC50 inhibition of [3H]AS binding): 5.25 nM
Ki (rat NPC1L1; rNPC1L1/HEK293 cells): 2.35 ± 0.49 nM
Kd (rat NPC1L1; rNPC1L1/HEK293 cells, increasing [3H]AS, 4 h, 37° C., read-out: Kd (equilibrium dissociation constant, saturation binding)): 4.62 ± 0.69 nM
IC50 ([4]; 5.49 nM [3H]AS, 4 h, 37° C., read-out: IC50 inhibition of [3H]AS binding): 2.86 nM
Ki ([4]; MDCKII cells): 0.34 ± 0.04 nM
Kd ([4]; MDCKII cells, increasing [3H]AS, 4 h, 37° C.): 0.59 ± 0.07 nM
Compound: CS(=O)(=O)NCCCc1ccc(N2C(=O)[C@H](CC[C@H](O)c3ccc(F)cc3)[C@H]2c2ccc(O[C@@H]3O[C@H](C(=O)O)[C@@H](O)[C@H](O)[C@H]3O)cc2)cc1 [AS, 4-[(2S,3R)-3-[(3S)-3-(4-fluorophenyl)-3-hydroxypropyl]-1-(4-{3-[(methylsulfonyl)amino]propyl}phenyl)-4-oxoazetidin-2-yl]phenyl β-D-gluteopyranosiduronic acid]

Source: patent publication US20100184094A1, “USE OF MDCK CELLS IN THE EVALUATION OF CHOLESTEROL MODULATORS” (priority 2007, published 2010)
